The record followed here is US4172896A, “Methane-sulfonamide derivatives, the preparation thereof and composition comprising the same” (Dainippon Pharmaceutical Co., Ltd., priority 1978, dated 1979).

Series [1] in a line: Anti-maximal electroshock seizure activity in mice. The format is in vivo, mice (male, STD-ddY strain). To be noted: Mus musculus, oral, MES 60 Hz 25 mA 0.2 s, at peak effect time. The source says:
Male mice of STD-ddY strain were used. The test compounds were orally administered to the test animals (each group: 10 mice) in the form of a homogeneous suspension in a 0.5% tragacanth solution.
Maximal electroshock seizures (MES) were induced by the method of Swinyard [cf. J. Amer. Pharm. Assoc., Vol. 38, page 201 (1949)]. The animals were subjected to 60 Hz current of 25 mA for 0.2 second delivered through corneal electrodes after administration of the test compounds. […] J. Pharmacol. Exp. Ther., Vol. 96, page 99 (1947)].
For orientation: Protection in the maximal electroshock model is a classic sign of anticonvulsant action.

A short description of series [2]: Effect on coordinated motor movements in mice (rotarod). The conditions noted are these: for TD50 / selectivity ratio: mouse, in vivo, po; for NTD50 (median neurotoxic dose): oral, mice, rotarod, at peak effect time. How it is done:
Mice trained to continue coordinated motor movements for 100 seconds or more on a rotarod apparatus (2.5 cm in diameter at 11 RPM) were used [J. Amer. Pharm. […] Impairment of coordinated motor movements was defined as the inability of the animals to retain on the rotarod for a 100 second test period. After oral administration of the test compounds rotarod performance was tested at intervals of 1 hour for 6 hours. Median neurotoxic dose (NTD50), i.e. the does which causes fall from rotarod in 50% of animals, was calculated by the method of Litchfield and Wilcoxon.

A short description of series [3]: in vivo. To be noted: mouse; for LD50 at 168 h: mortality observed for 7 days; for selectivity ratio: read-out: Safety index. The text has this: Male mice of STD-ddY strain weighing 20-22 g were used. The test compounds were orally administered to the test animals (each group: 10 mice) in the form of a homogeneous suspension in 0.5% tragacanth solution.

By ED50 is commonly meant the dose that gives a 50% effect, or the effect in half of the subjects. Lower therefore signals an effect at a small dose. The LD50 is the dose at which mortality reaches 50%. The low end stands for a more toxic substance, the high end for a less toxic substance.

In turn, `NC(=O)N1c2ccccc2C=Cc2ccccc21` [Carbamazepine, 5H-dibenz[b,f]azepine-5-carboxamide, reference compound] showed an ED50 in series [1] of 13.2 mg/kg. Moreover, in series [2], the TD50 was 141 mg/kg and the selectivity ratio came to 10.7. Moreover, the LD50 at 168 h in series [3] (oral, mice) was found to be 1700 mg/kg. For the same compound, the selectivity ratio in series [3] (po) is 129. Consider `O=C1NC(=O)C(c2ccccc2)(c2ccccc2)N1` [Diphenylhydantoin, 5,5-diphenyl-2,4-imidazolidinedione, reference compound], for which, in series [1], the ED50 stood at 7.6 mg/kg. The compound further came in with a TD50 in series [2] of 72 mg/kg. In the case of `NC(=O)NC(=O)Cc1ccccc1` [Phenacemide, phenylacetylurea, reference compound], the ED50 in series [1] came out at 61.2 mg/kg. On to `CCC1(c2ccccc2)C(=O)NCNC1=O` [Primidone, 5-ethyl-5-phenylhexahydropyrimidine-4,6-dione, reference compound], for which the ED50 in series [1] came to 21.7 mg/kg. This ED50 lies about 2.8-fold lower than the previous one. On the same count and under the same terms, with `CCNS(=O)(=O)Cc1noc2ccccc12` [Test compound 3] the figure was 38.9 mg/kg. On to `CC(C)NS(=O)(=O)Cc1noc2ccccc12` [Test compound 4], for which, in series [1], the ED50 came to 56 mg/kg. `CNS(=O)(=O)Cc1noc2ccc(Cl)cc12` [Test compound 7] had an ED50 in series [1] of about 20 mg/kg. With `NS(=O)(=O)Cc1noc2ccc(F)cc12` [Test compound 10, 5-Fluoro-3-sulfamoylmethyl-1,2-benzisoxazole], the selectivity ratio in series [2] was 10.6; in series [3] (LD50/ED50 of anti-MES, mice, oral) it was 86.7. In addition, the “NTD50 (median neurotoxic dose)” value in series [2] was 154 mg/kg, p.o. The compound further gave an LD50 at 168 h in series [3] (oral, mice) of 1260 mg/kg. Consider `NS(=O)(=O)Cc1noc2ccccc12` [compound 1], for which the ED50 in series [1] turned out to be 19.6 mg/kg. Besides, the selectivity ratio in series [2] turned out to be 14.9; in series [3] (po) it was 93.3. In addition, in series [2], the “NTD50 (median neurotoxic dose)” value is 292 mg/kg, p.o. Further, in series [3] (oral, mice), the LD50 at 168 h is 1830 mg/kg. Compound `CNS(=O)(=O)Cc1noc2ccccc12` [compound 2] gave a 50% effective dose (ED50) in series [1] of 22.3 mg/kg. `CN(C)S(=O)(=O)Cc1noc2ccccc12` [compound 5]: in series [1], the 50% effect level (ED50) was put at a dose of 37.2 mg/kg. Still for that read-out and setting: with `NS(=O)(=O)Cc1noc2ccc(Cl)cc12` [compound 6] the figure was 14.2 mg/kg; with `CCNS(=O)(=O)Cc1noc2ccc(Cl)cc12` [compound 8], 21.3 mg/kg. On the same count and under the same terms, for `CN(C)S(=O)(=O)Cc1noc2ccc(Cl)cc12` [compound 9] the value was 56.2 mg/kg. As for `CNS(=O)(=O)Cc1noc2ccc(F)cc12` [compound 11], it took a dose of 34.5 mg/kg to reach the 50% effect level in series [1] (ED50). Take `CCNS(=O)(=O)Cc1noc2ccc(F)cc12` [compound 12]: in series [1], the ED50 worked out at 31.6 mg/kg. For `CN(C)S(=O)(=O)Cc1noc2ccc(F)cc12` [compound 13], in series [1], the 50% effect level (ED50) was put at a dose of 32 mg/kg. The ED50 values of the last two compounds are within 1.5-fold of each other.

As for `NS(=O)(=O)Cc1noc2ccc(Br)cc12` [compound 14], the ED50 in series [1] amounted to 13.5 mg/kg. Against the preceding compound, the ED50 is about 2.4-fold lower. Regarding `CNS(=O)(=O)Cc1noc2ccc(Br)cc12` [compound 15], the ED50 in series [1] came out at 15 mg/kg. Regarding `CCNS(=O)(=O)Cc1noc2ccc(Br)cc12` [compound 16], the 50% effect level in series [1] (ED50) was put at a dose of 18.3 mg/kg. `CC(C)NS(=O)(=O)Cc1noc2ccc(Br)cc12` [compound 17] came in with an ED50 in series [1] of 22.3 mg/kg.

In series [1], `NS(=O)(=O)Cc1noc2cc(F)ccc12` [compound 18] had an ED50 of 18.9 mg/kg.

As for `NS(=O)(=O)Cc1nc2ccccc2o1` [compound 19], it took a dose of 12 mg/kg to reach the 50% effect level in series [1] (ED50). Moreover, in series [2], the TD50 turned out to be 168 mg/kg and the selectivity ratio is 14. The compound further registered an LD50 at 168 h in series [3] (oral, mice) of about 1800 mg/kg. In turn, `CNS(=O)(=O)Cc1nc2ccccc2o1` [compound 20] registered an ED50 in series [1] of 17.2 mg/kg.

In series [1], `CN(C)S(=O)(=O)Cc1nc2ccccc2o1` [compound 21] came in with an ED50 of 34 mg/kg.

With `CCCNS(=O)(=O)Cc1nc2ccccc2o1` [compound 22], the ED50 in series [1] came to 31.2 mg/kg. The same measure, in the same setting: with `NS(=O)(=O)Cc1nc2cc(Cl)ccc2o1` [compound 23] the figure was 30.3 mg/kg.
